Data from ChEMBL document CHEMBL3393060, “Inhibitors of c-Jun N-terminal kinases: an update” (J Med Chem, 2015).

How the values were obtained:
[1] = biological target: Mitogen-activated protein kinase 10 (Rattus norvegicus, UniProt P49187); test: Inhibition of JNK3-mediated c-jun phosphorylation in rat INS1 cells; assay type: cell-based
MAP kinase p38 = MAP kinase p38 (Homo sapiens, UniProt O15264+Q15759+Q16539+P53778); test: Inhibition of p38 (unknown origin); assay type: protein assay
[2] = biological target: T1, Mitogen-activated protein kinase 9 (Homo sapiens, UniProt P45984); test: Inhibition of JNK2 (unknown origin) by time-resolved fluorescence assay
[3] = biological target: T2, Mitogen-activated protein kinase 8 (Homo sapiens, UniProt P45983); test: Inhibition of JNK1 (unknown origin) by time-resolved fluorescence assay
[4] = biological target: T3, Mitogen-activated protein kinase 10 (Homo sapiens, UniProt P53779); test: Inhibition of JNK3 (unknown origin) by time-resolved fluorescence assay
[5] = biological target: Mast/stem cell growth factor receptor Kit (Homo sapiens, UniProt P10721); test: Inhibition of KIT (unknown origin)
[6] = biological target: Mast/stem cell growth factor receptor Kit (Homo sapiens, UniProt P10721, V559D); test: Inhibition of KIT V559D (unknown origin)
[7] = biological target: Platelet-derived growth factor receptor beta (Homo sapiens, UniProt P09619); test: Inhibition of PDGFRbeta (unknown origin)
[8] = biological target: Non-receptor tyrosine-protein kinase TYK2 (Homo sapiens, UniProt P29597); test: Inhibition of TYK2 (unknown origin)
Cytochrome P450 1A2 = Cytochrome P450 1A2 (Homo sapiens, UniProt P05177); test: Inhibition of CYP1A2 (unknown origin); assay type: ADME
Cytochrome P450 2A6 = Cytochrome P450 2A6 (Homo sapiens, UniProt P11509); test: Inhibition of CYP2A6 (unknown origin); assay type: ADME
Cytochrome P450 2B6 = Cytochrome P450 2B6 (Homo sapiens, UniProt P20813); test: Inhibition of CYP2B6 (unknown origin); assay type: ADME
Cytochrome P450 2C8 = Cytochrome P450 2C8 (Homo sapiens, UniProt P10632); test: Inhibition of CYP2C8 (unknown origin); assay type: ADME
Cytochrome P450 2C9 = Cytochrome P450 2C9 (Homo sapiens, UniProt P11712); test: Inhibition of CYP2C9 (unknown origin); assay type: ADME
Cytochrome P450 2C19 = Cytochrome P450 2C19 (Homo sapiens, UniProt P33261); test: Inhibition of CYP2C19 (unknown origin); assay type: ADME
Cytochrome P450 2D6 = Cytochrome P450 2D6 (Homo sapiens, UniProt P10635); test: Inhibition of CYP2D6 (unknown origin); assay type: ADME
Cytochrome P450 2E1 = Cytochrome P450 2E1 (Homo sapiens, UniProt P05181); test: Inhibition of CYP2E1 (unknown origin); assay type: ADME
Cytochrome P450 3A4 = Cytochrome P450 3A4 (Homo sapiens, UniProt P08684); test: Inhibition of CYP3A4 (unknown origin); assay type: ADME
[9] = Neuroprotective effect against MPP+-induced cell death in primary cultures of mouse mesencephalic dopaminergic neurons […] single dose after 8 hrs; assay type: functional
Rattus norvegicus [10] = species on record: Rattus norvegicus; test: Neuroprotective effect against D-amphetamine-induced circling in rats assessed as reduction in behavioral deficits; assay type: functional
Rattus norvegicus [11] = test: Protective activity in rat model of myocardial ischemia-reperfusion injury assessed as reduction in infarct volume at 5 mg/kg; assay type: functional
[12] = Oral bioavailability in rat; assay type: ADME, organism-based; conditions: in vivo
Rattus norvegicus [13] = species on record: Rattus norvegicus; test: Ratio of drug level brain to plasma in rat; assay type: ADME, organism-based
[14] = Oral bioavailability in rat at 2 mg/kg; assay type: ADME, organism-based; conditions: in vivo
[15] = Half life in rat at 1 mg/kg, iv and 2 mg/kg, po; assay type: ADME, organism-based; conditions: in vivo
[16] = Clearance in rat at 1 mg/kg, iv and 2 mg/kg, po; assay type: ADME, organism-based; conditions: in vivo
[17] = biological target: Casein kinase I isoform delta (Homo sapiens, UniProt P48730); test: Inhibition of CK1delta (unknown origin) by KINOMEScan assay
[18] = biological target: Phosphatidylinositol 4,5-bisphosphate 3-kinase catalytic subunit gamma isoform (Homo sapiens, UniProt P48736); test: Inhibition of PI3Kgamma (unknown origin) by KINOMEScan assay
[19] = biological target: MAP kinase-interacting serine/threonine-protein kinase 2 (Homo sapiens, UniProt Q9HBH9); test: Inhibition of MKNK2 (unknown origin) by KINOMEScan assay
[20] = biological target: T2, Mitogen-activated protein kinase 8; test: Inhibition of JNK1 (unknown origin)
[21] = biological target: T1, Mitogen-activated protein kinase 9; test: Inhibition of JNK2 (unknown origin)
[22] = biological target: T3, Mitogen-activated protein kinase 10; test: Inhibition of JNK3 (unknown origin) by JIP-FP displacement assay
[23] = biological target: T2, Mitogen-activated protein kinase 8; test: Inhibition of JNK1 (unknown origin) by JIP-FP displacement assay
[24] = biological target: T1, Mitogen-activated protein kinase 9; test: Inhibition of JNK2 (unknown origin) by JIP-FP displacement assay
[25] = biological target: Leucine-rich repeat serine/threonine-protein kinase 2 (Homo sapiens, UniProt Q5S007, G2019S); test: Inhibition of LRRK2 G2019S mutant (unknown origin)
[26] = biological target: T3, Mitogen-activated protein kinase 10; test: Inhibition of JNK3-mediated c-jun phosphorylation in human A375 cells after 1 hr incubation; assay type: cell-based, A-375
[27] = biological target: T2, Mitogen-activated protein kinase 8; test: Inhibition of JNK1 (unknown origin) after 1 hr incubation
[28] = biological target: T3, Mitogen-activated protein kinase 10; test: Inhibition of JNK3-mediated c-jun phosphorylation in human HeLa cells after 1 hr incubation; assay type: cell-based

T1 sequence (P45984 whole entry): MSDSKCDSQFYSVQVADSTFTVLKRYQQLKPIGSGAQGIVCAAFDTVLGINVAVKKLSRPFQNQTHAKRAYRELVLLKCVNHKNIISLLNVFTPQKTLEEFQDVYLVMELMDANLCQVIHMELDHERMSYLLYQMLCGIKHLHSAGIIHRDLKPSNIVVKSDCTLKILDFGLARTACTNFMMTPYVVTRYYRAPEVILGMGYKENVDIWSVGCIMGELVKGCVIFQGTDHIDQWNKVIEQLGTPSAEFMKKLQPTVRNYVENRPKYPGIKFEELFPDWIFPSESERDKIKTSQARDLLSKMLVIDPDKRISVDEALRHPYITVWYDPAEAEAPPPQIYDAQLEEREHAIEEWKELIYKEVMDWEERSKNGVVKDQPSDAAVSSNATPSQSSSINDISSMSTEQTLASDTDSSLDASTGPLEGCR
Sequence of Casein kinase I isoform delta (P48730 whole entry, canonical isoform): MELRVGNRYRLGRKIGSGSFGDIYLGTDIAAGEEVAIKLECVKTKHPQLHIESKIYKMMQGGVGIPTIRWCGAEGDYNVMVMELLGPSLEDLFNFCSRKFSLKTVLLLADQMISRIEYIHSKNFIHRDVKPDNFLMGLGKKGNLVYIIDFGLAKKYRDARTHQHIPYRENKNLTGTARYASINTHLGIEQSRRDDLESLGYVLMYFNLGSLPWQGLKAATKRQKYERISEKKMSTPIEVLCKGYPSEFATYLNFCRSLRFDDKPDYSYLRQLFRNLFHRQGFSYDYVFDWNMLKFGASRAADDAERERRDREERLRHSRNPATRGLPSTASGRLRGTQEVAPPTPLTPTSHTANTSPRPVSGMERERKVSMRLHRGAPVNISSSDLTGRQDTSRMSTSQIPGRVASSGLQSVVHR
T2 sequence (P45983 whole entry): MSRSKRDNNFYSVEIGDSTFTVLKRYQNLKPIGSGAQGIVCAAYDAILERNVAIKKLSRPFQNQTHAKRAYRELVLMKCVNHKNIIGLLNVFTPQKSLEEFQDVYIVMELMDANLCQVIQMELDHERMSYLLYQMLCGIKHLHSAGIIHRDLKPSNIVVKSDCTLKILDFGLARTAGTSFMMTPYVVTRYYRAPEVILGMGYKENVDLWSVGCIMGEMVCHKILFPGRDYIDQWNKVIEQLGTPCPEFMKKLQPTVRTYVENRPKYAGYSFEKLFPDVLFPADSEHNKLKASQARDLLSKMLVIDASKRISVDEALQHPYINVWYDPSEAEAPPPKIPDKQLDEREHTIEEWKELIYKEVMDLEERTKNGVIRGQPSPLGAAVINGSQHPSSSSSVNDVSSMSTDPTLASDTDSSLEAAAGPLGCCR
Sequence of Mast/stem cell growth factor receptor Kit (Homo sapiens, UniProt P10721) (P10721 whole entry): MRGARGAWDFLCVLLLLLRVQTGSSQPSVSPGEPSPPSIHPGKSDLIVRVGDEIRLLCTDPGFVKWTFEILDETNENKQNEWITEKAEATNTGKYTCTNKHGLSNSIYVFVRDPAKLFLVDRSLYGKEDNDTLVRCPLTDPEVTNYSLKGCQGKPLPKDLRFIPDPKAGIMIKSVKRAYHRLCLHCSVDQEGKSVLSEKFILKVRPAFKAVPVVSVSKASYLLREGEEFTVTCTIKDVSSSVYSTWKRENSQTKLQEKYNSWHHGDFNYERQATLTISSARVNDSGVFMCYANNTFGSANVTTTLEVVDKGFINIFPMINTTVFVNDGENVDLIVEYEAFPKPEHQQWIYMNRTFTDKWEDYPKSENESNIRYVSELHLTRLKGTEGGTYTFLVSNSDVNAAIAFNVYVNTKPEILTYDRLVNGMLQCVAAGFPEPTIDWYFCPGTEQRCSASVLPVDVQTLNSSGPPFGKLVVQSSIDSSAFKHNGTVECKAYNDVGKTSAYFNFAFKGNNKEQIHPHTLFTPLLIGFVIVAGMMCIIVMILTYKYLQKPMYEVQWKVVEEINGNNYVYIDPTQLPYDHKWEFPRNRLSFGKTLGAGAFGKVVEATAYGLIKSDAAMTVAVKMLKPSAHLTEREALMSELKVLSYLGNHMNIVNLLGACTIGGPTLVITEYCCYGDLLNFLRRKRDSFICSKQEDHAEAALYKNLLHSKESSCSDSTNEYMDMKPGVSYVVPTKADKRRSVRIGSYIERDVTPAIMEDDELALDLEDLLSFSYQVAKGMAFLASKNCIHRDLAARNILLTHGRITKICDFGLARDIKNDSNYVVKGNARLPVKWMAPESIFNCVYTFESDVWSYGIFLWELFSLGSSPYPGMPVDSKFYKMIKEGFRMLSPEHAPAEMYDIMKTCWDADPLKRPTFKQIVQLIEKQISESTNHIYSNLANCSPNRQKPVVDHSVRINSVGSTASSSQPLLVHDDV
Sequence of Mitogen-activated protein kinase 10 (Rattus norvegicus, UniProt P49187) (P49187 whole entry): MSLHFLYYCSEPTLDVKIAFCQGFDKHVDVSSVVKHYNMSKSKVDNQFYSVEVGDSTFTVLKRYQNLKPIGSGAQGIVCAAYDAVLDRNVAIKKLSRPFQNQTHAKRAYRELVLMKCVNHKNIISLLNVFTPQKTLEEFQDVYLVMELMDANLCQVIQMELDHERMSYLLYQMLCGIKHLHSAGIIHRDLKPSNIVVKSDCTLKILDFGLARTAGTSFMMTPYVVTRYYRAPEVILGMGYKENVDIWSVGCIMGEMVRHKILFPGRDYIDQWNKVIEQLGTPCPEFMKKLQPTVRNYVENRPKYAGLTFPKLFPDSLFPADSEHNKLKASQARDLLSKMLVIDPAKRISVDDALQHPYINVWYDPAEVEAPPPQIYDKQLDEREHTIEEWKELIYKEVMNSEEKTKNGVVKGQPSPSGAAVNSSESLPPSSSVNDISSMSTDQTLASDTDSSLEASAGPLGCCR
Sequence of Phosphatidylinositol 4,5-bisphosphate 3-kinase catalytic subunit gamma isoform (P48736 whole entry, canonical isoform): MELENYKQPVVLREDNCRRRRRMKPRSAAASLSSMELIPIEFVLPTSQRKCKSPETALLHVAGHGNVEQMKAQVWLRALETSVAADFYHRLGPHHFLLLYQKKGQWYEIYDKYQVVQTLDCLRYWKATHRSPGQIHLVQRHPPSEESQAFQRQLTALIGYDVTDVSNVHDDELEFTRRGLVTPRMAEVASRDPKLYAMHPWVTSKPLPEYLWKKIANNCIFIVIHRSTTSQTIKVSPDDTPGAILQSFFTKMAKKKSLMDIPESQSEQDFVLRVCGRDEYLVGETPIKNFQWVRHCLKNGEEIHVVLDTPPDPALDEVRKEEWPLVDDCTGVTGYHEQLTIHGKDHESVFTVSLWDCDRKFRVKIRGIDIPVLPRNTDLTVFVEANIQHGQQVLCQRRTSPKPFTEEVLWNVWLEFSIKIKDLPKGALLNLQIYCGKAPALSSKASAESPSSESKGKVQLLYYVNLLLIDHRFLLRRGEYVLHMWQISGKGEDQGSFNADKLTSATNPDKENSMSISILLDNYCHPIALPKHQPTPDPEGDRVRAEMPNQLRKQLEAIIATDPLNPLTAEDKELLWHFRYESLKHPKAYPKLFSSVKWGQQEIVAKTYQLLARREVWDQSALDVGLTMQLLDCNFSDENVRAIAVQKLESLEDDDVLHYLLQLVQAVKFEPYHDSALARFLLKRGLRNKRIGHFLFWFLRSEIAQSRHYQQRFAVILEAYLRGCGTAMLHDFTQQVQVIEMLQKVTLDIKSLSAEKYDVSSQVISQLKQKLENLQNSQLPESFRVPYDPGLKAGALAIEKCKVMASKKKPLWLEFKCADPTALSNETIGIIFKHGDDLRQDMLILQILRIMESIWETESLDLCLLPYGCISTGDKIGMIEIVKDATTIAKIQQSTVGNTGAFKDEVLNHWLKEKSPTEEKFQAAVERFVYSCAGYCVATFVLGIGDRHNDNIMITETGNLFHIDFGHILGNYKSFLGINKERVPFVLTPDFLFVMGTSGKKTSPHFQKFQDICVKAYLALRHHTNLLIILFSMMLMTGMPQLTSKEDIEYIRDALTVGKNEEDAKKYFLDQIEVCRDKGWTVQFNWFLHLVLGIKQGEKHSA
T3 sequence (P53779 whole entry): as the sequence (P49187 whole entry) above, with H27Q, S32Y, V33I, V34A counted along it
Sequence of MAP kinase-interacting serine/threonine-protein kinase 2 (Q9HBH9 whole entry): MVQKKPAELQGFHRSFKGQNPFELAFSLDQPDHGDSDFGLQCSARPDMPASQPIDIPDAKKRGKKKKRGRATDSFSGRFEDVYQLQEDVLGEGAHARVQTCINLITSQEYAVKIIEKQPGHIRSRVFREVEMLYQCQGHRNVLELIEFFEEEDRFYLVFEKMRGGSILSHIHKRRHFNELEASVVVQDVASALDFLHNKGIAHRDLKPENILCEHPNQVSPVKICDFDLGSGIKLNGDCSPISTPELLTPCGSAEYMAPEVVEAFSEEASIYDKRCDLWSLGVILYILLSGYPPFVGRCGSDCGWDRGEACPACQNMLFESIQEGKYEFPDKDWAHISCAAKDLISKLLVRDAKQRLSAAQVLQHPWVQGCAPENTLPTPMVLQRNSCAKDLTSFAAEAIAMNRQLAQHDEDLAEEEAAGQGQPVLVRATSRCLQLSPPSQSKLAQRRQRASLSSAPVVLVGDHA
Sequence of Cytochrome P450 1A2 (P05177 whole entry): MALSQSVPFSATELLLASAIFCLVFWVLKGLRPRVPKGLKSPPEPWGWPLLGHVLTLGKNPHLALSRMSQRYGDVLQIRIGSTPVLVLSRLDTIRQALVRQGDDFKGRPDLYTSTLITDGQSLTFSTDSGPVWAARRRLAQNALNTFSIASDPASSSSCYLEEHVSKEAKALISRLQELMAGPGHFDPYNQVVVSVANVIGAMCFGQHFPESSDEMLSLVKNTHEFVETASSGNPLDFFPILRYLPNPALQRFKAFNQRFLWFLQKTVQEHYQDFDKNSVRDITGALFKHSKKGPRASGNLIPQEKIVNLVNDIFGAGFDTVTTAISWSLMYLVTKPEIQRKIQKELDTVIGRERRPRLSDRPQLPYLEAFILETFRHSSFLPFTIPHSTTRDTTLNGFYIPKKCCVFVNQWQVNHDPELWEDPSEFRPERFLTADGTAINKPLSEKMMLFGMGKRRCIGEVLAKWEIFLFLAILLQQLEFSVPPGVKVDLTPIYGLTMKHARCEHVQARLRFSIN

COc1cc(NC(=O)c2cccc(-n3cc(NC(=O)Nc4ccccc4)cn3)c2)cc(OC)c1OC showed an IC50 [1] of 1200 nM and an IC50 (MAP kinase p38) of 3700 nM.
For Cn1cc(-c2ccc3cnc(Nc4ccc(-n5cnc(N6CCOCC6)n5)cc4)nc3c2)cn1, the IC50 [2] was 90 nM and the IC50 [1] was 310 nM.
Work on Cc1ccc(-c2ncn(-c3ccc(Nc4nccc(-c5cccc(N6CCOCC6)c5)n4)cc3)n2)cn1 yielded an IC50 [3] of 67 nM, an IC50 [2] of 283 nM and an IC50 [4] of 159 nM. For the same molecule, the IC50 [1] was 216 nM, the IC50 (MAP kinase p38) was over 20000 nM and the Kd [5] was over 20000 nM. It also gave a Kd [6] of under 1000 nM, a Kd [7] of under 1000 nM and a Kd [8] of under 1000 nM. For the same molecule, the IC50 (Cytochrome P450 1A2) was over 50000 nM, the IC50 (Cytochrome P450 2A6) was over 50000 nM and the IC50 (Cytochrome P450 2B6) was over 50000 nM. The IC50 (Cytochrome P450 2C8) was over 50000 nM, the IC50 (Cytochrome P450 2C9) was over 50000 nM and the IC50 (Cytochrome P450 2C19) was over 50000 nM. The IC50 (Cytochrome P450 2D6) was over 50000 nM, the IC50 (Cytochrome P450 2E1) was over 50000 nM and the IC50 (Cytochrome P450 3A4) was over 50000 nM. The Activity [9] was over 90%, the “inhibition (INH)” value (Rattus norvegicus [10]) was 90% and the inhibition in vivo at 5 mg/kg (Rattus norvegicus [11]) was 34%.
With O=C(NCCN1CCOCC1)c1ccnc(-n2ncc3cc(Nc4ccccc4Cl)ccc32)c1 the Kd [5] was under 1000 nM.
Molecule NC(=O)c1ccccc1Nc1nc(Nc2ccc(N3CCOCC3)cc2)ncc1Cl has an IC50 [3] of 1 nM and an IC50 [4] of 0.3 nM.
COc1cc(N2CCOCC2)ccc1Nc1ncc(Cl)c(Nc2ccccc2C(N)=O)n1 showed an IC50 [3] of 3 nM, an IC50 [4] of 0.8 nM and an IC50 [1] of 3 nM. It also gave a bioavailability [12] of 30% and a BPR (Rattus norvegicus [13]) of 17%.
Molecule NC(=O)c1ccccc1Nc1nc(Nc2ccc(N3CCCC3=O)cc2)ncc1Cl has an IC50 [3] of 0.24 nM.
In the case of CN(C)c1ccc(-c2cnc3[nH]cc(-c4cn[nH]c4)c3c2)cc1, the IC50 [3] is reported as 101 nM, the IC50 [2] is reported as 59 nM and the IC50 [4] is reported as 32 nM.
Molecule Cn1cc(-c2c[nH]c3ncc([C@H]4CC[C@H](N5CCOCC5)CC4)cc23)cn1 has an IC50 [3] of 74 nM, an IC50 [2] of 123 nM and an IC50 [4] of 85 nM.
Work on Cn1cc(-c2c[nH]c3ncc([C@H]4CC[C@H](N5CCCOCC5)CC4)cc23)cn1 yielded an IC50 [3] of 166 nM and an IC50 [2] of 339 nM.
Molecule O=C(NCCN1CCN(C2CCC2)CC1)c1cccc(-n2ncc3cc(Nc4ccccc4Cl)ccc32)c1 has an IC50 [3] of 970 nM, an IC50 [4] of 40 nM and a bioavailability [14] of 27%. For the same molecule, the half-life [15] was 3.3 min and the clearance [16] was 25 mL/min/kg.
Molecule COc1cc(NC(=O)c2cccc(-n3cc(NC(=O)Nc4cccc(C)c4)cn3)c2)cc(OC)c1OC has an IC50 [3] of 17 nM, an IC50 [1] of 1300 nM and an IC50 (MAP kinase p38) of over 20000 nM. The Kd [5] was over 20000 nM.
COc1ccc(CC(=O)Nc2cc3cc(-c4cnn(C)c4)ccc3cn2)cc1 gave an IC50 [3] of 0.8 nM.
In the case of O/N=C1/c2ccccc2-c2nc3ccccc3nc21, the Kd [17] is reported as 380 nM, the Kd [18] is reported as 470 nM and the Kd [19] is reported as 920 nM.
O=C(O/N=C1/c2ccccc2-c2nc3ccccc3nc21)c1ccco1 gave a Kd [20] of 240 nM, a Kd [21] of 290 nM and a Kd [17] of 560 nM. It also gave a Kd [18] of 430 nM and a Kd [19] of 1200 nM.
For COc1ccc(C(=O)O/N=C2/c3ccccc3-c3nc4ccccc4nc32)cc1OC, the Kd [20] was 270 nM, the Kd [21] was 280 nM and the Kd [17] was 5700 nM. The Kd [18] was 12000 nM and the Kd [19] was 10000 nM.
With COc1ccc2c(c1)OCC(C(=O)NC(=O)N(CC(=O)NCCCCCCNC(=O)c1ccc(-c3n[nH]c4ccccc34)cc1)CC(C)C)O2 (stereo not given) the IC50 [1] was 2800 nM, the IC50 [22] was 12 nM and the IC50 [23] was 109 nM. The IC50 [24] was 336 nM and the IC50 [25] was 99 nM.
In the case of CN(C)C/C=C/C(=O)Nc1ccc(C(=O)Nc2cccc(Nc3nccc(-c4cccnc4)n3)c2)cc1, the IC50 [26] is reported as 2400 nM.
In the case of CN(C)C/C=C/C(=O)Nc1cccc(C(=O)Nc2ccc(Nc3nccc(-c4cccnc4)n3)cc2)c1, the IC50 [27] is reported as 1.5 nM.
With CN(C)C/C=C/C(=O)Nc1cccc(C(=O)Nc2ccc(Nc3nccc(-c4c(-c5ccccc5)nn5ccccc45)n3)cc2)c1 the IC50 [28] was 48 nM, the IC50 [26] was 9 nM and the IC50 [27] was 1.3 nM.
Molecule CS(=O)(=O)Nc1ccc(-c2ccnc(Nc3ccc(-n4ccnn4)cc3)n2)cc1 has an IC50 [1] of 210 nM and an IC50 (MAP kinase p38) of over 20000 nM.
In the case of Fc1cc(-c2cc[nH]/c(=N/c3ccc(-n4cnc(N5CCOCC5)n4)cc3)n2)cc(N2CCOCC2)c1, the IC50 [2] is reported as 99 nM, the IC50 [1] is reported as 54 nM and the IC50 (MAP kinase p38) is reported as over 20000 nM.
